In patent US20100324017A1, “ACYLGUANIDINE DERIVATIVE” (priority 2007, published 2010):

Tests used:
human 5-HT5A receptor = molecular target: T1, human 5-HT5A receptor (Homo sapiens, UniProt P47898); assay: Test of human 5-HT5A receptor binding inhibition ([3H]5-CT, HEK293 cell membrane); details: [3H]5-CT binding, membrane of HEK293 cell expressing human 5-HT5A receptor
T1 construct: expressed in transfected cells; membrane preparation
Protocol: An ORF of a human 5-HT5A receptor (Genbank AF498985) was cloned from a human hippocampal cDNA library, and then inserted into a pCR2.1 vector (Invitrogen), and Escherichia coli having the plasmid was mass cultured. Next, the human 5-HT5A receptor full-length cDNA sequence was analyzed, recombined into a pCDNA3.1 vector (Invitrogen) as an expression vector, and mass cultured. A human embryonic kidney-induced cell HEK293 cell (ATCC) was seeded, and the resulting expression plasmid (1 μg) above was added thereto together with LIPOFECTAMINE 2000 (Invitrogen; 2 μl), a gene was introduced into the HEK293 cell, and then Geneticin (G418 sulfate 500 μg/ml; Kanto Chemical Co., Inc.) was used as a drug-resistant marker to screen the expressing cell. Thus prepared gene-expressing recombinant cell was cultured in a D-MEM, 10% FCS, 1% Pc./Sm., 500 μg/ml G418 culture medium for 3 days. This experimental operation was conducted in accordance with a gene operation experiment manual of a known method (Sambrook, J. et al, Molecular Cloning-A Laboratory Manual“, Cold Spring Harabor Laboratory, NY, 1989), etc., an instruction appended in a reagent or the like.
(1) Preparation of a Membrane from an HEK293 Cell Forcibly Expressing a Human 5-HT5A Receptor
An HEK293 cell forcibly expressing a human 5-HT5A receptor was cultured in an F500 plate, and scraped for collection using a scraper. After centrifugation, the precipitates were collected and an incubation buffer (50 mM Tris (HCl) PH 7.4, 10 mM Mg504, 0.5 mM EDTA) was added thereto. After homogenization, it was further centrifuged, an incubation buffer was added to the precipitate, and the mixture was well suspended. These operations were repeatedly conducted, the protein concentration was then measured, and the preparation of a membrane was completed.
(2) Experiment on Human 5-HT5A Receptor Binding Inhibition
The compound to be tested (0.3 to 300 nM) and a 100 μM 5-CT solution in DMSO were added to a 96-well plate at 2 μl/well. The number of the wells to be measured under the same condition in one experiment was set at 2, and an average value thereof was used. It was suspended in an incubation buffer, and a HEK293 cell membrane forcibly expressing a human 5-HT5A receptor that had been prepared at 200 μg/ml was added thereto at 100 μl/well. The mixture was incubated at room temperature for 15 minutes, and a [^3H]5-CT solution (2 nM [^3H]5-CT, an incubation buffer) was then added thereto at 100 μl/well.
Separate from this, 100 μl of the solution was dispersed to a liquid scintillation vial, 2 ml of Aquasol II (registered trademark) was added thereto, followed by stirring, and the radioactivity was then measured with a liquid scintillation counter. The solution was incubated at 37° C. for 60 minutes. The reaction liquid was sucked to a 96-well GF/C filter plate that had been preliminarily treated with 0.2% polyethyleneimine, and washed six times with an ice-cooled 50 mM Tris (pH 7.5) buffer. The GF/C filter plate was dried.
MicroscintTMPS (registered trademark) was added thereto at 40 μl/well. The radioactivity remaining on the GF/C filter plate was measured in a top counter.
For the inhibitory activity for the binding of the [^3H]5-CT by the compound to be tested in each experiment, IC50 value was calculated by taking the radioactivity when only DMSO was added as 0% inhibition, and the radioactivity when 1 μM 5-CT was added as 100% inhibition. Apart from this, a Ki value was calculated from the Kd value of the [^3H]5-CT that had been determined by Scatchard analysis.
Ki=IC50 (1+Concentration of the ligands added/Kd (4.95 nM))

[1] = test system: scopolamine-induced spontaneous alternation behavior disorder; assay: Scopolamine-induced spontaneous alternation behavior disorder in mice (Y-maze); type: in vivo; details: mouse, oral, dose 0.003 mg/kg; scopolamine 0.5 mg/kg i.p.
Protocol: (§1) An Improvement Effect for Scopolamine-Induced or MK-801-Induced Spontaneous Alternation Behavior in Mice
(§2) An improvement effect of the compound (I) for cognitive impairment was evaluated by the above-described well-known test method as a model of a short-term learning disorder.
(§3) Species: Male ddY mice/number of animals (number of animals per group): 6 to 10 animals per group
(§4) A mouse was introduced into the laboratory 1 hour before starting the test. The mouse was placed at one end of an arm in a Y-maze having equal lengths of arms in three directions, and was able freely explored for 8 minutes with the number of the entries into the arms were counted. Furthermore, a spontaneous alternation behavior was defined as consecutive entries into each of the three arms, and an alternation rate was defined as the percentage of the number of time of this behavior relative to the total number of the entries, and calculated by the following equation.
Alternation rate (%)=(number of spontaneous alternation behaviors/total number of entries−2)×100.
The compound to be tested was orally administered 50 minutes before the initiation of the test, and 30 minutes later, 0.5 mg/kg of scopolamine or 0.15 mg/kg of MK-801 (in the normal group, physiological saline) was intraperitoneally administered. Furthermore, for the normal group (the group administered with physiological saline) and the control group (the group administered with 0.5 mg/kg scopolamine or 0.15 mg/kg MK-801), a solvent (vehicle) was orally administered when the compound to be tested was administered. For the normal group, physiological saline was intraperitoneally administered when scopolamine was administered.
The alternation rate (%) is expressed as an average value in each group (mean±SE). In regard to the alternation rate (%), in the case where a significant difference between the normal group and the control group (Student's T test) was found, it was considered that there was an establishment of learning disorder by the administration of scopolamine or MK-801. By carrying out the Dunnett evaluation for the group administered with the compound to be tested relative to the control group, the presence or absence of the learning disorder action of the compound to be tested was determined. In each evaluation, it was considered that there was a tendency at p<0.10, and there was a significant difference at p<0.05.

[2] = test system: water maze learning disorders in old rats; assay: Water maze learning disorders in old rats; type: in vivo, rat
Protocol: Evaluation of a Drug for Water Maze Learning Disorders in Old Rats
The improvement effect of the compound (I) for dementia was evaluated by a known water maze learning disorder model used as a pathophysiology model.
Specifically, it was evaluated in accordance with the method as described in “J Pharmacol Exp Ther, 1996; 279: 1157-73, Yamazaki M. et al.”.

[3] = test system: MK-801-induced spontaneous alternation behavior disorder; assay: MK-801-induced spontaneous alternation behavior disorder in mice (Y-maze); type: in vivo; details: mouse, oral, dose 0.003 mg/kg; MK-801 0.15 mg/kg i.p.
Protocol: as §1, §2, §3, §4
Alternation rate (%)=(number of spontaneous alternation behaviors/total number of entries−2)×100. […]
The alternation rate (%) is expressed as an average value in each group (mean±SE). […] By carrying out the Dunnett evaluation for the group administered with the compound to be tested relative to the control group, the presence or absence of the learning disorder action of the compound to be tested was determined. […]

T1 sequence (P47898 whole entry): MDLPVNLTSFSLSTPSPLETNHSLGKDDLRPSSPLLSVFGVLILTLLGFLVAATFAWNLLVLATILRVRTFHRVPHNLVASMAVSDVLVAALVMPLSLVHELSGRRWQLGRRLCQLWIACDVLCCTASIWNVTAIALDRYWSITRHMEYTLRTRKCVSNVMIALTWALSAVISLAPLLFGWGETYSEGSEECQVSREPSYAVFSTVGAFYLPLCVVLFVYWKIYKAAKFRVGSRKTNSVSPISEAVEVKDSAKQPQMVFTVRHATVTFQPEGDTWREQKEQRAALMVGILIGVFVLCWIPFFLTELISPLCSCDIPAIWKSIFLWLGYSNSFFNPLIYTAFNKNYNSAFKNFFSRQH

Row | SMILES | Ki (human 5-HT5A receptor) [nM] | inhibition of scopolamine-induced spontaneous alternation behavior disorder [1] | improvement of water maze learning disorders in old rats ([2]; dose 0.01 mg/kg) | improvement of water maze learning disorders in old rats ([2]; dose 0.03 mg/kg) | improvement of MK-801-induced spontaneous alternation behavior disorder [3]
1 | NC(N)=NC(=O)c1ccc2c3ccccc3n(C3CCOCC3)c2c1 [Example 25] | 0.51 | significantly inhibited | significantly improved | significantly improved | significantly improved
2 | CC(C)n1c2cc(C(=O)N=C(N)N)ccc2c2c(CO)cccc21 [Example 65] | ≤ 50 | significantly inhibited |  |  | 
